Columns and labels:
APJ (Apelin receptor) [1] = biological target: T1, APJ (Apelin receptor) (Homo sapiens, UniProt P35414); experiment: BRET-based cAMP biosensor (CAMYEL) assay; format: cell-based
T1 sequence (P35414 1-380): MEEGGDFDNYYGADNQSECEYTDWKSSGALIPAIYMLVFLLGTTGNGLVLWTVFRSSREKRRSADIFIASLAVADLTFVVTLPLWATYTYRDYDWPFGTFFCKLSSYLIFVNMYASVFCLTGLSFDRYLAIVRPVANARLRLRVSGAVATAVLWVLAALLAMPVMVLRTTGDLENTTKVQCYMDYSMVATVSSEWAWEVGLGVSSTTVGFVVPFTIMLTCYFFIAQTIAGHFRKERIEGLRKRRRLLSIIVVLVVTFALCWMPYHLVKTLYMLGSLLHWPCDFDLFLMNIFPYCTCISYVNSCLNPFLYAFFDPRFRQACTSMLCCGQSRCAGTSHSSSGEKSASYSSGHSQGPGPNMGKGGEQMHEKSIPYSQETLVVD
Description: The cAMP concentration was measured using a BRET-based cAMP biosensor ([Barak et al., 2008]; [Ji et al., 2017]) in HEK293 cells transiently co-expressing YFP-Epac-RLuc and APJ. The sensor is composed of an N-terminal truncated variant of EPAC tagged with Rluc and YFP at N-terminal and C-terminal, respectively. […] At 24 h after transfection, cells were digested and plated into a 96-well microplate for 24 h following adding the substrate coelenterazine H into the medium at the final concentration of 5 µM and the nonspecific phosphodiesterase inhibitor IBMX (40 μM) for 20 min, and the cells were stimulated for 10 min with forskolin (10 μM).
(A) A schematic diagram of YFP-cAMP-Rluc fusion expression vector. […] Data represent mean ± SEM from four independent experiments (Supplementary Table S1).
(§1) The concentration-response data for the ligands in various assays were analyzed to determine the biases of the ligands for G protein dependent signaling or β-arrestin dependent signaling, according to a previously published method ([Kenakin et al., 2012]; [Hager et al., 2016]; [Hothersall et al., 2017]). Briefly, the concentration-response data for each ligand were fitted to the Black–Leff operation model to obtain the values of τ and K A, using the following equation: Response=[A]^nτ^nEm/[A]^nτ^n+([A]KA)^n where [A] is the concentration of the agonist, E m is the maximal response of the system, n is the transducer slope, and K A and τ describe the affinity and efficacy of the agonist, respectively. In the data fitting, the reparametrized form of the equation proposed by [Kenakin et al. (2012)] was used: Response=Em/1+exp{nln[1+exp(β1)/[A]]−nβ2} where β 1 and β 2 are the natural logarithm of K A and τ, respectively, and E m was set to 1. Thus, for each concentration-response curve, a non-linear regression was performed to fit the above equation to give β 1 and β 2 (as well as n). Log (τ/K A) values (“transduction coefficients”) for each ligand vs. each pathway were obtained. […] The ΔΔlog (τ/K A), or Log (Bias), which is the logarithm of the bias factor for a given pathway over a reference pathway (here, intracellular calcium release), was calculated for each ligand as Δlog (τ/K A)–Δlog (τ/K A)Calcium. The 95% confidence interval (CI) was expressed as the mean ± standard error; Log (Bias) values, whose 95% CI crosses 0, were considered statistically insignificant.
(§2) The data were analyzed using GraphPad Prism v5.0. All the data are presented as the mean ± SEM. Differences between groups were compared by one-way analysis of variants (ANOVA), followed by post-hoc tests (Tukey’s test), When p < 0.05, the difference was considered significant. All experiments were repeated at least four times. The dose-response curves were generated using non-linear fitting model log (agonist) vs. response (three-parameters), with Hill Slope held to 1, i.e., Y = Bottom + (Top-Bottom)/(1 + 10^(LogEC50-X)).
P<0.05 was considered as statistically significant. Control group (HG, Cells were stimulated with high glucose (Glucose Concentration: 4500 mg/L, HEPES, No Phenol Red). Data represent mean ± SEM from four independent experiments. Statistical analysis (Table S1)

APJ (Apelin receptor) [2] = biological target: T1, APJ (Apelin receptor); experiment: Intracellular calcium assay (Fluo-4 NW); format: cell-based
Description: HEK293 cells stably expressing APJ were plated at 10^4 cells per well in 96-well black microplates pretreated with a 0.1 mg/ml solution of poly-D-lysine for 24 h. Calcium fluorescence signals in cells were measured using the Fluo-4 NW calcium assay kit (Thermo Fisher Scientific) according to the manufacturer’s instructions ([Chen et al., 2014]; [Wang et al., 2017]). Before detection, cells were washed twice with assay buffer (1 × HBSS, 20 mM HEPES). One hundred microlitres of the dye loading solution was added to each well of a 96-well plate. Cells were incubated at 37°C in 5% CO2 humidified atmosphere for 30 min, then at room temperature for an additional 30 min. Cells were stimulated with six ligands (100 nM) for 5 min, then calcium signals were immediately measured on a Mithras LB940 plate reader (Berthold Technologies, Bad Wildbad, Germany) with an excitation wavelength of 485 nm and an emission wavelength of 525 nm. Dose response curve: cells were stimulated with different concentrations of six peptides for 30 s, and calcium fluorescence was detected. The calculation of the calcium fluorescence ratio was described previously ([Chen et al., 2014]).
as §1, §2
HEK293 cells stably expressed APJ, and in 30 s, the dose response curve stimulated with six peptides was measured. Data represent mean ± SEM from four independent experiments (Supplementary Table S2). With six peptides (B) stimulation, the dose-response curve of GRK2 recruited to APJ was measured by BRET (at 15 min). p < 0.05 was considered as statistically significant. Data represent mean ± SEM from four independent experiments (Supplementary Table S3).
P<0.05 was considered as statistically significant. Control group (HG, Cells were stimulated with high glucose).

APJ (Apelin receptor) [3] = biological target: T1, APJ (Apelin receptor); experiment: Radioligand competition binding assay, [125I]-apelin-13, HEK-293/APJ membranes; design: APJ membrane preparations were obtained from transiently transfected HEK293 cells; host or cells: HEK293 cells, transiently transfected; membranes prepared; settings: [125I]-apelin-13 competition
Description: APJ membrane preparations were obtained from transiently transfected HEK293 cells. HEK293 cells were cultured in complete DMEM (DMEM plus 10% FBS) for 24 h, until they reached at least 70% confluence. Transfection reagent containing 20 μg of the APJ expression plasmid was added, and the cells were incubated for another 24 h. The cells were then harvested into 25 ml homogenization buffer (HB) [250 mM sucrose and 25 mM HEPES (pH 7.3); adjusted to pH 7.5 at 4°C and then filtered] supplemented with 250 μL phenylmethylsulfonyl fluoride (PMSF), homogenized using an IKA T25 Ultra Turrax (24,000 rpm), and centrifuged at 6,025 rpm for 15 min at 4°C. […]
The binding reaction was stopped by rapid filtration through polyethyleneimine (PEI)-coated GF/B plates using a cell harvester, and the plates were washed three times with ice-cold wash buffer [50 mM HEPES (pH 7.4), 500 mM NaCl, and 0.1% BSA; filtered and stored at 4°C]. The filtration plates were dried at 37°C for 2 h; 50 μL scintillation cocktail (Perkin Elmer, Wellesley, MA, United States), was added to each well; and the radioactivity was measured using a Perkin Elmer 1450 MicroBeta TriLux Microplate Scintillation and Luminescence Counter.
The binding reaction was stopped, the plates were washed and dried, the scintillation cocktail was added, and the radioactivity was measured as described above.

[4] = Ca2+ (reference pathway), reference ligand Apelin-13

CSCC[C@H](NC(=O)[C@@H]1CSSC[C@H](NC(=O)[C@H](CC(N)=O)NC(=O)[C@H](Cc2c[nH]cn2)NC(=O)[C@H](CCCCN)NC(=O)[C@H](CCCNC(=N)N)NC(=O)[C@@H](N)CC(C)C)C(=O)N[C@@H](CC(C)C)C(=O)N[C@@H](CCC(N)=O)C(=O)N[C@@H](CCCNC(=N)N)C(=O)N[C@@H](CCCNC(=N)N)C(=O)N1)C(=O)N1CCC[C@H]1C(=O)N[C@@H](CC(C)C)C(=O)N[C@@H](Cc1c[nH]cn1)C(=O)N[C@@H](CO)C(=O)N[C@@H](CCCNC(=N)N)C(=O)N[C@H](C(=O)N1CCC[C@H]1C(=O)N[C@@H](Cc1ccccc1)C(=O)N1CCC[C@H]1C(=O)O)C(C)C [Elabela-21]
P vs HG, cAMP production (APJ (Apelin receptor) [1]; 0.001 nM): P>0.05 | P vs HG, cAMP production (APJ (Apelin receptor) [1]; 0.01 nM): P>0.05 | P vs HG, cAMP production (APJ (Apelin receptor) [1]; 0.1 nM): P>0.05 | P vs HG, cAMP production (APJ (Apelin receptor) [1]; 1 nM): ^**P<0.01 | P vs HG, cAMP production (APJ (Apelin receptor) [1]; 10 nM): ^***P<0.001 | P vs HG, cAMP production (APJ (Apelin receptor) [1]; 100 nM): ^***P<0.001 | P vs HG, cAMP production (APJ (Apelin receptor) [1]; 1000 nM): ^***P<0.001 | Bias factor (APJ (Apelin receptor) [1]; cAMP over Ca2+, reference Apelin-13): 38.0 | Log (Bias) (APJ (Apelin receptor) [1]; cAMP over Ca2+, reference Apelin-13, footnote a = statistically insignificant): 1.6 ± 0.3 | bias over calcium release (APJ (Apelin receptor) [1]; cAMP pathway): 38 fold | log (τ/KA) (APJ (Apelin receptor) [1]; cAMP, Black–Leff operational model): −0.1 ± 0.1 | Δlog (τ/KA) (APJ (Apelin receptor) [1]; cAMP, relative to Apelin-13): 0.0 ± 0.2 | P vs HG, intracellular calcium (APJ (Apelin receptor) [2]; 0.001 nM): P>0.05 | P vs HG, intracellular calcium (APJ (Apelin receptor) [2]; 0.01 nM): P>0.05 | P vs HG, intracellular calcium (APJ (Apelin receptor) [2]; 0.1 nM): P>0.05 | P vs HG, intracellular calcium (APJ (Apelin receptor) [2]; 1 nM): P>0.05 | P vs HG, intracellular calcium (APJ (Apelin receptor) [2]; 10 nM): ^*P<0.05 | P vs HG, intracellular calcium (APJ (Apelin receptor) [2]; 100 nM): ^***P<0.001 | P vs HG, intracellular calcium (APJ (Apelin receptor) [2]; 1000 nM): ^***P<0.001 | Bias factor (APJ (Apelin receptor) [2]; [4]): 1.0 | Log (Bias) (APJ (Apelin receptor) [2]; [4]): 0.0 | log (τ/KA) (APJ (Apelin receptor) [2]; Ca2+ pathway, Black–Leff operational model): −1.8 | Δlog (τ/KA) (APJ (Apelin receptor) [2]; Ca2+ pathway, relative to Apelin-13): −1.6 | binding affinity (in words) (APJ (Apelin receptor) [3]): slightly weaker binding affinity than Elabela-32
